# Test results taken from patent publication US20230265151A1, “GIP/GLP1 CO-AGONIST COMPOUNDS” (priority 2020, published 2023).
# Read-outs that look alike come from different tables or passages of the source.
# Legend:
# Type in all cases: cell-based
# hGIPR = target: T1, hGIPR (Homo sapiens, UniProt P48546); test: Functional cAMP formation (HTRF) in HEK-293 clonal cells expressing hGIPR, 0.1% bovine casein, without or with 1.0% human serum albumin; conditions: for EC50: cAMP, 0.1% bovine casein (no human serum albumin), geometric mean
# T1 construct: expressed in transfected cells
# T1 sequence (P48546 22-466): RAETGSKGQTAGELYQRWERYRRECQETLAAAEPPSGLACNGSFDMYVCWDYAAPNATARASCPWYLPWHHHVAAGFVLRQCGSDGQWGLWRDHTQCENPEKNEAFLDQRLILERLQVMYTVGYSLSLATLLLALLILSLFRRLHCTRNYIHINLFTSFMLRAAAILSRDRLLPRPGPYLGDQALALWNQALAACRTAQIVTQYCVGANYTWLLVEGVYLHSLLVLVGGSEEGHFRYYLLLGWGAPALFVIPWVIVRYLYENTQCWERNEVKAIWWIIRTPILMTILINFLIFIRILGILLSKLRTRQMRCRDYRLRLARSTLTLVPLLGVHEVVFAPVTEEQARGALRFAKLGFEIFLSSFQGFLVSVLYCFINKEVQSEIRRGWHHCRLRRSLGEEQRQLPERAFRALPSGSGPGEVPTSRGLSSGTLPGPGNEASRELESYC
# Summary of the method: (§1)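 Cells were stimulated with peptide for 30 min at 37° C, then lysed in buffer carrying cAMP-d2 and anti-cAMP Eu3+-cryptate for a competitive HTRF read after at least 60 min at room temperature. The 665/620 nm ratio was converted to nM cAMP against a standard curve.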
# hGCGR = target: T2, hGCGR (Homo sapiens, UniProt P47871); test: Functional cAMP formation (HTRF) in HEK-293 clonal cells expressing hGCGR, 0.1% bovine casein, without or with 1.0% human serum albumin; conditions: cAMP
# T2 construct: expressed in transfected cells
# T2 sequence (P47871 26-477): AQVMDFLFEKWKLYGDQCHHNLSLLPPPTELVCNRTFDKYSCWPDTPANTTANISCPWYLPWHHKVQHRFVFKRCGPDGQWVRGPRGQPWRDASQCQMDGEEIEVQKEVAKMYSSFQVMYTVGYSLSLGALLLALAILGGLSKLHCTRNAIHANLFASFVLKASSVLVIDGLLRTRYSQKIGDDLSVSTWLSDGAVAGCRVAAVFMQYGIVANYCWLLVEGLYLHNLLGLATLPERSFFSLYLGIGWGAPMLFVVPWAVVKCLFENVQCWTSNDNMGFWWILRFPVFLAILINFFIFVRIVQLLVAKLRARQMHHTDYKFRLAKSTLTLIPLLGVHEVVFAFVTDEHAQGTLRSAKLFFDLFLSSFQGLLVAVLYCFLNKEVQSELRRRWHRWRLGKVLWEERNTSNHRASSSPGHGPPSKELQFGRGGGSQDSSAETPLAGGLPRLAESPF
# Summary of the method: as §1
# hGLP-1R = hGLP-1R (Homo sapiens, UniProt P43220); test: Functional cAMP formation (HTRF) in HEK-293 clonal cells expressing hGLP-1R, 0.1% bovine casein, without or with 1.0% human serum albumin; parameters: expressed in transfected cells; conditions: for EC50: cAMP, 0.1% bovine casein (no human serum albumin), geometric mean; for Emax: percent of maximal response to GLP-1(7-36)NH2
# Chain of hGLP-1R (P43220 24-463): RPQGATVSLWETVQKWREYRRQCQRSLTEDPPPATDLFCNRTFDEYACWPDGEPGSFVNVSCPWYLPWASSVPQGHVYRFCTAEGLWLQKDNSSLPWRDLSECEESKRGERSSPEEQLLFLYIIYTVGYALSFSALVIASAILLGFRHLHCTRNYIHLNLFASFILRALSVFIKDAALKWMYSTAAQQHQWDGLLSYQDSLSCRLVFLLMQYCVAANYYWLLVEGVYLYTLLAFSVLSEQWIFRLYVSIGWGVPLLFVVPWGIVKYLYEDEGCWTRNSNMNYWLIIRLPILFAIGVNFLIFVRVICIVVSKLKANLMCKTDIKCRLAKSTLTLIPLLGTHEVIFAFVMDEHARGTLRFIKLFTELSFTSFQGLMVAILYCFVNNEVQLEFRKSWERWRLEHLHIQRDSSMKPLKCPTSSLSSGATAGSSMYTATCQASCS
# Summary of the method: as §1
# [1] = HEK293, read-out: hGIPR Emax, % ± SEM, cAMP, 37° C., 0.1% bovine casein and 1.0% human serum albumin, percent of maximal response to GIP(1-42)NH2
# [2] = hGIPR EC50, nM (SEM, n), 37° C.
# [3] = hGCGR EC50, nM (SEM, n), 37° C., 0.1% bovine casein (no human serum albumin), geometric mean
# [4] = hGCGR EC50, nM (SEM, n), 37° C., 0.1% bovine casein and 1.0% human serum albumin, geometric mean (SEM, n)
# [5] = hGLP-1R EC50, nM (SEM, n), 37° C.
smiles,measurement,setting,value
CC[C@H](C)[C@H](NC(=O)[C@H](CCCN)NC(=O)[C@H](CC(=O)O)NC(=O)[C@H](CC(C)C)NC(=O)[C@](C)(CC(C)C)NC(=O)[C@@H](NC(=O)C(C)(C)NC(=O)[C@@H](NC(=O)[C@H](CC(=O)O)NC(=O)[C@H](CO)NC(=O)[C@@H](NC(=O)[C@](C)(Cc1ccccc1F)NC(=O)[C@@H](NC(=O)CNC(=O)[C@H](CCC(=O)O)NC(=O)C(C)(C)NC(=O)[C@@H](N)Cc1ccc(O)cc1)[C@@H](C)O)[C@@H](C)O)C(C)C)[C@@H](C)CC)C(=O)N[C@@H](C)C(=O)N[C@@H](CCC(N)=O)C(=O)NC(C)(C)C(=O)N[C@@H](CCC(=O)O)C(=O)N[C@@H](Cc1ccccc1)C(=O)N[C@H](C(=O)N[C@@H](CCCCNC(=O)COCCOCCNC(=O)COCCOCCNC(=O)COCCOCCNC(=O)CC[C@H](NC(=O)CCCCCCCCCOc1ccc(C(=O)O)cc1)C(=O)O)C(=O)N[C@@](C)(Cc1ccc(O)cc1)C(=O)N[C@@H](CC(C)C)C(=O)N[C@H](C(=O)N[C@@H](CCCCNC(=O)COCCOCCNC(=O)COCCOCCNC(=O)COCCOCCNC(=O)CC[C@H](NC(=O)CCCCCCCCCOc1ccc(C(=O)O)cc1)C(=O)O)C(=O)NCC(=O)NCC(=O)N1CCC[C@H]1C(=O)N[C@@H](CO)C(=O)N[C@@H](CO)C(=O)NCC(=O)N[C@@H](C)C(=O)N1CCC[C@H]1C(=O)N1CCC[C@H]1C(=O)N1CCC[C@H]1C(=O)N[C@@H](CO)C(N)=O)[C@@H](C)CC)[C@@H](C)CC [Example 347],Emax,hGIPR; [1],84.6%
same,Emax,"hGIPR; HEK293, read-out: hGIPR Emax, % ± SEM, cAMP, 37° C., 0.1% bovine casein, percent of maximal response to GIP(1-42)NH2, arithmetic mean",98%
same,EC50,hGIPR; [2],0.0259 nM
same,EC50,hGCGR; [3],> 9950 nM
same,EC50,hGCGR; [4],> 9950 nM
same,EC50,hGLP-1R; [5],0.356 nM
CC[C@H](C)[C@H](NC(=O)[C@H](CC(C)C)NC(=O)[C@](C)(Cc1ccc(O)cc1)NC(=O)[C@@H](CCC(=O)O)NC(=O)[C@@H](NC(=O)[C@H](Cc1ccccc1)NC(=O)[C@H](CCC(=O)O)NC(=O)C(C)(C)NC(=O)[C@H](CCC(N)=O)NC(=O)[C@H](C)NC(=O)[C@H](CCCCNC(=O)COCCOCCNC(=O)CC[C@H](NC(=O)CCCCCCCCCOc1ccc(C(=O)O)cc1)C(=O)O)NC(=O)[C@H](CCCN)NC(=O)[C@H](CC(=O)O)NC(=O)[C@H](CC(C)C)NC(=O)[C@](C)(CC(C)C)NC(=O)[C@@H](NC(=O)C(C)(C)NC(=O)[C@H](Cc1ccc(O)cc1)NC(=O)[C@H](CC(=O)O)NC(=O)[C@H](CO)NC(=O)[C@@H](NC(=O)[C@](C)(Cc1ccccc1F)NC(=O)[C@@H](NC(=O)CNC(=O)[C@H](CCC(=O)O)NC(=O)C(C)(C)NC(=O)[C@@H](N)Cc1ccc(O)cc1)[C@@H](C)O)[C@@H](C)O)[C@@H](C)CC)[C@@H](C)CC)C(=O)N[C@@H](CCCCNC(=O)COCCOCCNC(=O)CC[C@H](NC(=O)CCCCCCCCCOc1ccc(C(=O)O)cc1)C(=O)O)C(=O)NCC(=O)NCC(=O)N1CCC[C@H]1C(=O)N[C@@H](CO)C(=O)N[C@@H](CO)C(=O)NCC(=O)N[C@@H](C)C(=O)N1CCC[C@H]1C(=O)N1CCC[C@H]1C(=O)N1CCC[C@H]1C(=O)N[C@@H](CO)C(N)=O [Example 373],Emax,hGIPR; [1],82.4%
same,EC50,hGIPR; [2],0.0152 nM
same,EC50,hGCGR; [3],> 9950 nM
same,EC50,hGCGR; [4],> 9950 nM
same,Emax,"hGLP-1R; HEK293, read-out: hGLP-1R Emax, % ± SEM, cAMP, 37° C., 0.1% bovine casein and 1.0% human serum albumin",112%
same,EC50,hGLP-1R; [5],0.329 nM
CC[C@H](C)[C@H](NC(=O)[C@H](CC(C)C)NC(=O)[C@](C)(Cc1ccc(O)cc1)NC(=O)[C@H](CCCCNC(=O)COCCOCCNC(=O)COCCOCCNC(=O)CC[C@H](NC(=O)CCCc1ccc(C(C)(C)C)cc1)C(=O)O)NC(=O)[C@@H](NC(=O)[C@H](Cc1ccccc1)NC(=O)[C@H](CCC(=O)O)NC(=O)C(C)(C)NC(=O)[C@H](CCC(N)=O)NC(=O)[C@H](C)NC(=O)[C@H](CCCCNC(=O)COCCOCCNC(=O)COCCOCCNC(=O)CC[C@H](NC(=O)CCCc1ccc(C(C)(C)C)cc1)C(=O)O)NC(=O)[C@H](CCCN)NC(=O)[C@H](CC(=O)O)NC(=O)[C@H](CC(C)C)NC(=O)[C@](C)(CC(C)C)NC(=O)[C@@H](NC(=O)[C@H](CO)NC(=O)[C@H](Cc1ccncc1)NC(=O)[C@H](CC(=O)O)NC(=O)[C@H](CO)NC(=O)[C@@H](NC(=O)[C@](C)(Cc1ccccc1F)NC(=O)[C@@H](NC(=O)CNC(=O)[C@H](CCC(=O)O)NC(=O)C(C)(C)NC(=O)[C@@H](N)Cc1ccc(O)cc1)[C@@H](C)O)[C@@H](C)O)[C@@H](C)CC)[C@@H](C)CC)C(=O)N[C@@H](CCC(=O)O)C(=O)NCC(=O)NCC(=O)N1CCC[C@H]1C(=O)N[C@@H](CO)C(=O)N[C@@H](CO)C(=O)NCC(=O)N[C@@H](C)C(=O)N1CCC[C@H]1C(=O)N1CCC[C@H]1C(=O)N1CCC[C@H]1C(=O)N[C@@H](CO)C(N)=O [Example 132],Emax,"hGIPR; HEK293, read-out: hGIPR Emax, % ± SEM, percent of maximal response to GIP(1-42)NH2, 37° C., 0.1% bovine casein, arithmetic mean",98.3 ± 1.68%
same,EC50,"hGIPR; hGIPR EC50, nM (SEM, n), incubated at 37° C.",0.0208 nM
same,EC50,"hGCGR; hGCGR EC50, nM (SEM, n), incubated at 37° C., 0.1% bovine casein (no human serum albumin), geometric mean",> 9950 nM
same,EC50,"hGLP-1R; hGLP-1R EC50, nM (SEM, n), incubated at 37° C.",0.182 nM
CC[C@H](C)[C@H](NC(=O)[C@H](CC(C)C)NC(=O)[C@](C)(Cc1ccc(O)cc1)NC(=O)[C@@H](CCC(=O)O)NC(=O)[C@@H](NC(=O)[C@H](Cc1ccccc1)NC(=O)[C@H](CCCCNC(=O)COCCOCCNC(=O)CC[C@H](NC(=O)CCCCCCCCCCCCC(=O)O)C(=O)O)NC(=O)C(C)(C)NC(=O)[C@H](CCC(N)=O)NC(=O)[C@H](C)NC(=O)[C@H](CCCCNC(=O)COCCOCCNC(=O)CC[C@H](NC(=O)CCCCCCCCCCCCC(=O)O)C(=O)O)NC(=O)[C@H](CCCN)NC(=O)[C@H](CC(=O)O)NC(=O)[C@H](CC(C)C)NC(=O)[C@](C)(CC(C)C)NC(=O)[C@@H](NC(=O)C(C)(C)NC(=O)[C@H](Cc1ccc(O)cc1)NC(=O)[C@H](CC(=O)O)NC(=O)[C@H](CO)NC(=O)[C@@H](NC(=O)[C@](C)(Cc1ccccc1F)NC(=O)[C@@H](NC(=O)CNC(=O)[C@H](CCC(=O)O)NC(=O)C(C)(C)NC(=O)[C@@H](N)Cc1ccc(O)cc1)[C@@H](C)O)[C@@H](C)O)[C@@H](C)CC)[C@@H](C)CC)C(=O)N[C@@H](CCC(=O)O)C(=O)NCC(=O)NCC(=O)N1CCC[C@H]1C(=O)N[C@@H](CO)C(=O)N[C@@H](CO)C(=O)NCC(=O)N[C@@H](C)C(=O)N1CCC[C@H]1C(=O)N1CCC[C@H]1C(=O)N1CCC[C@H]1C(=O)N[C@@H](CO)C(N)=O [Example 366],Emax,"hGIPR; HEK293, cAMP, 37° C., 0.1% bovine casein and 1.0% human serum albumin, percent of maximal response to GIP(1-42)NH2, read-out: hGIPR Emax, % ± SEM",95.9%
same,EC50,"hGIPR; 37° C., read-out: hGIPR EC50, nM (SEM, n)",0.0162 nM
same,EC50,"hGCGR; 37° C., 0.1% bovine casein (no human serum albumin), geometric mean, read-out: hGCGR EC50, nM (SEM, n)",> 9950 nM
same,EC50,"hGCGR; 37° C., 0.1% bovine casein and 1.0% human serum albumin, geometric mean (SEM, n), read-out: hGCGR EC50, nM (SEM, n)",> 9950 nM
same,Emax,"hGLP-1R; HEK293, cAMP, 37° C., 0.1% bovine casein and 1.0% human serum albumin, read-out: hGLP-1R Emax, % ± SEM",98.3%
same,Emax,"hGLP-1R; HEK293, cAMP, 37° C., 0.1% bovine casein, arithmetic mean, read-out: hGLP-1R Emax, % ± SEM",89.6%
same,EC50,"hGLP-1R; 37° C., read-out: hGLP-1R EC50, nM (SEM, n)",0.279 nM
